# Data reported in US9957297B2, “Template-fixed peptidomimetics as inhibitors of FPR1” (POLYPHOR AG, priority 2011, dated 2018).
# Where a SMILES comes first, the peptide text is derived from it. Bridges are numbered along the chain shown (N, C = ends). [ ]: non-standard residue; d: D form.
# Biological target: T1, FPR1 (Homo sapiens, UniProt P21462)
# T1 construct: host or cells: CHO (PathHunter CHO-FPR1 β-arrestin cells)
# T1 sequence (P21462 1-350): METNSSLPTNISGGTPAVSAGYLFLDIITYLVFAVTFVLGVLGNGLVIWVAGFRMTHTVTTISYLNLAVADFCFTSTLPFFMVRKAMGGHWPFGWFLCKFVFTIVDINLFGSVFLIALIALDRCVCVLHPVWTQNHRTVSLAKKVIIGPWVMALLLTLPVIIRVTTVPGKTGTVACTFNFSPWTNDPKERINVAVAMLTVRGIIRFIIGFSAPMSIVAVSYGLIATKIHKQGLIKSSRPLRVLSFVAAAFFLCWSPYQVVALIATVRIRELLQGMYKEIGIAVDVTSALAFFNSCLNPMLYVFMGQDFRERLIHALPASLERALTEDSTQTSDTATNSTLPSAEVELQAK
# Experiment: FPR1 β-arrestin recruitment assay (PathHunter CHO-FPR1, antagonistic mode)
# Type: cell-based
# Settings: CHO FPR1 β-arrestin cells; antagonistic assay vs reference agonist fMLF at its EC80; 60 min preincubation
# Method: 2.2 FPR1 β-Arrestin Recruitment Assay
# The PathHunter CHO—FPR1 (DiscoverX) assay was performed according to the manufacturer's protocol. In brief, CHO FPR1 β-arrestin cells were seeded at a density of 9000 cells per well in 20 μl of Ham's F12 medium (Invitrogen) in black 384-well culture plates and incubated overnight at 37° C. in a humidified atmosphere with 5% CO2. The next day, serial dilutions of the β-hairpin peptidomimetics of this invention have been prepared in DMSO and subsequently diluted in HBSS buffer supplemented with 20 mM Hepes and 0.1% BSA.
# For antagonistic assay, 5 μl of compound solution or buffer was added to the cells with a final DMSO concentration of 0.5% (v/v). The plate was incubated for 60 min at 37° C. with 5% CO2 before addition of […] of the reference agonist fMLF peptide (Sigma-Aldrich) at its EC80 concentration. After 90 min of incubation at 37° C. with 5% CO2, 15 μl of beta-Glo detection reagent (Promega) were added. Reaction was developed for 20 min at room temperature and chemiluminescence was measured with a Victor2V (Perkin Elmer) luminescence reader.
row,IC50 [nM],Structure (SMILES)
1,126 ± 53,"CC[C@H](C)[C@@H]1NC(=O)[C@H]([C@@H](C)O)NC(=O)[C@H](Cc2c[nH]c3ccccc23)NC(=O)[C@H]2CCCN2C(=O)CNC(=O)[C@H](Cc2c[nH]c3ccccc23)NC(=O)[C@@H]2CSSC[C@H](NC1=O)C(=O)N[C@@H](Cc1ccc(O)cc1)C(=O)N[C@@H](CCC(=O)O)C(=O)N[C@@H](CCCCN)C(=O)N[C@H](CCCCN)C(=O)N1CCC[C@H]1C(=O)N[C@@H](Cc1ccc(O)cc1)C(=O)N[C@@H](Cc1c[nH]cn1)C(=O)N[C@@H](CCCCN)C(=O)N2 [compound 43, cyclo(-Tyr-His-Lys-Cys-Trp-Gly-^DPro-Trp-Thr-Ile-Cys-Tyr-Glu-Lys-^DLys-Pro-)] (cyclo(YHKCWG[dP]WTICYEK[dK]P); disulfide 4-11)"
2,54 ± 21,"CC[C@H](C)[C@@H]1NC(=O)[C@H]([C@@H](C)O)NC(=O)[C@H](Cc2c[nH]c3ccccc23)NC(=O)[C@H]2CCCN2C(=O)CNC(=O)[C@H](Cc2c[nH]c3ccccc23)NC(=O)[C@@H]2CSSC[C@H](NC1=O)C(=O)N[C@@H](Cc1ccc(O)cc1)C(=O)N[C@@H](CCC(=O)O)C(=O)N[C@@H](CCCCN)C(=O)N1CCC[C@@H]1C(=O)N1CCC[C@H]1C(=O)N[C@@H](Cc1ccc(O)cc1)C(=O)N[C@@H](Cc1c[nH]cn1)C(=O)N[C@@H](CCCCN)C(=O)N2 [compound 51, cyclo(-Tyr-His-Lys-Cys-Trp-Gly-^DPro-Trp-Thr-Ile-Cys-Tyr-Glu-Lys-^DPro-Pro-)] (cyclo(YHKCWG[dP]WTICYEK[dP]P); disulfide 4-11)"
3,54 ± 21,"CC[C@H](C)[C@@H]1NC(=O)[C@H]([C@@H](C)O)NC(=O)[C@H](Cc2c[nH]c3ccccc23)NC(=O)[C@H]2CCCN2C(=O)CNC(=O)[C@H](Cc2c[nH]c3ccccc23)NC(=O)[C@@H]2CSSC[C@H](NC1=O)C(=O)N[C@@H](Cc1ccc(O)cc1)C(=O)N[C@@H](CCC(=O)O)C(=O)N[C@@H](CCCCN)C(=O)N1CCC[C@@H]1C(=O)N[C@@H](CCCCN)C(=O)N[C@@H](Cc1ccc(O)cc1)C(=O)N[C@@H](Cc1c[nH]cn1)C(=O)N[C@@H](CCCCN)C(=O)N2 [compound 87, cyclo(-Tyr-His-Lys-Cys-Trp-Gly-^DPro-Trp-Thr-Ile-Cys-Tyr-Glu-Lys-^DPro-Lys-)] (cyclo(YHKCWG[dP]WTICYEK[dP]K); disulfide 4-11)"
